One data set concerns the target MRP3 (Homo sapiens, UniProt O15438). To be noted: cited from earlier work.
The subject of the next data set is hyaluronan transport. The experiment in a line: Inhibition of hyaluronan transport (export) from human fibroblasts, discussion of Example 9. To be noted: for inhibition of hyaluronan transport (words): human fibroblasts.
The target of another data set is MRP5 (Homo sapiens, UniProt O15440). Particulars: cited from earlier work.
The target of another data set is T1, MRP4 (Homo sapiens, UniProt O15439).
T1 sequence (O15439 1-1325): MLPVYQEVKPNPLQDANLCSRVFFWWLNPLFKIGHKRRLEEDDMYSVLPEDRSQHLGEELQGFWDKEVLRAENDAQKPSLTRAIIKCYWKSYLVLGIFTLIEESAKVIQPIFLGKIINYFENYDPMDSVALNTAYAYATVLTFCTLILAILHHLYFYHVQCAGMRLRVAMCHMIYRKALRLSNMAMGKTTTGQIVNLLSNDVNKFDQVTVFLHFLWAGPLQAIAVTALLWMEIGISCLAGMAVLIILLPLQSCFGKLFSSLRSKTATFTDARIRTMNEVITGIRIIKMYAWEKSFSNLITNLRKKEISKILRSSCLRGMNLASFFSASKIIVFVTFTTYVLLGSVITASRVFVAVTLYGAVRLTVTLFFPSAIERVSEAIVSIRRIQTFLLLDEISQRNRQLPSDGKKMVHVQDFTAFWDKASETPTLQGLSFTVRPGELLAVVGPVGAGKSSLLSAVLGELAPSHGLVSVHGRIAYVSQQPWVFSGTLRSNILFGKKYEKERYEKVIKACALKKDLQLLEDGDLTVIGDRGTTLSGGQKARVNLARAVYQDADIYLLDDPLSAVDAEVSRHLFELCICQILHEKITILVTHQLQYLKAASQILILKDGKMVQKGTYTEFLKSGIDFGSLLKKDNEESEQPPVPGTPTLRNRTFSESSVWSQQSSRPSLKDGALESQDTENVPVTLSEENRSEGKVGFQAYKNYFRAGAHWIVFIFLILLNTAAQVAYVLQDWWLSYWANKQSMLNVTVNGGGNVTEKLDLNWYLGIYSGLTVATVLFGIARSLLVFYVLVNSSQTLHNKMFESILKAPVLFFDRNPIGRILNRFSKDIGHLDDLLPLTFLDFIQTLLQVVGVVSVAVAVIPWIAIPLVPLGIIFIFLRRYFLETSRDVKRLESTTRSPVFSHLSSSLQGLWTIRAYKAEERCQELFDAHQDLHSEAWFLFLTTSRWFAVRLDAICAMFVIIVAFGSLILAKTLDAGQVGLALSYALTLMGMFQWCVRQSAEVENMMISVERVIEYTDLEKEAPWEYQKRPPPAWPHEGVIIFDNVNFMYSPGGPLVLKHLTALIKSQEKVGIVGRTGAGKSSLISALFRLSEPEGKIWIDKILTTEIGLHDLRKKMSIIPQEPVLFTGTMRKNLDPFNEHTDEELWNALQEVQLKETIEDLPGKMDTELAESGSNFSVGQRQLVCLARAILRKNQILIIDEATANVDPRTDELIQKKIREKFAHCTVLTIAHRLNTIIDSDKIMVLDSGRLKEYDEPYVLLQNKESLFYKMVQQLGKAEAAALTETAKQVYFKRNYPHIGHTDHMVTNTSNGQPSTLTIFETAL
Particulars: cited from earlier work.

The subject of a further data set is human fibroblasts. Kind of data set: Hyaluronan production of human fibroblasts (ELISA of culture medium). The format is cell-based. Particulars: for IC50: read-out: HA production (IC50); for hyaluronan in culture medium: human skin fibroblasts / fibroblast cell line, increasing concentrations, 3 days.
The next data set deals with hyaluronan synthase. Particulars: for IC50: read-out: HA synthase activity (IC50), membranes of human fibroblasts; for hyaluronan transport / synthase activity in membranes: membranes from human fibroblasts.
The target of the next data set is MRP2 (Homo sapiens, UniProt Q92887). To be noted: cited from earlier work.
For a further data set, the target named is MRP1 (Homo sapiens, UniProt P33527). To be noted: cited from earlier work.
Sequence of MRP1 (P33527 whole entry): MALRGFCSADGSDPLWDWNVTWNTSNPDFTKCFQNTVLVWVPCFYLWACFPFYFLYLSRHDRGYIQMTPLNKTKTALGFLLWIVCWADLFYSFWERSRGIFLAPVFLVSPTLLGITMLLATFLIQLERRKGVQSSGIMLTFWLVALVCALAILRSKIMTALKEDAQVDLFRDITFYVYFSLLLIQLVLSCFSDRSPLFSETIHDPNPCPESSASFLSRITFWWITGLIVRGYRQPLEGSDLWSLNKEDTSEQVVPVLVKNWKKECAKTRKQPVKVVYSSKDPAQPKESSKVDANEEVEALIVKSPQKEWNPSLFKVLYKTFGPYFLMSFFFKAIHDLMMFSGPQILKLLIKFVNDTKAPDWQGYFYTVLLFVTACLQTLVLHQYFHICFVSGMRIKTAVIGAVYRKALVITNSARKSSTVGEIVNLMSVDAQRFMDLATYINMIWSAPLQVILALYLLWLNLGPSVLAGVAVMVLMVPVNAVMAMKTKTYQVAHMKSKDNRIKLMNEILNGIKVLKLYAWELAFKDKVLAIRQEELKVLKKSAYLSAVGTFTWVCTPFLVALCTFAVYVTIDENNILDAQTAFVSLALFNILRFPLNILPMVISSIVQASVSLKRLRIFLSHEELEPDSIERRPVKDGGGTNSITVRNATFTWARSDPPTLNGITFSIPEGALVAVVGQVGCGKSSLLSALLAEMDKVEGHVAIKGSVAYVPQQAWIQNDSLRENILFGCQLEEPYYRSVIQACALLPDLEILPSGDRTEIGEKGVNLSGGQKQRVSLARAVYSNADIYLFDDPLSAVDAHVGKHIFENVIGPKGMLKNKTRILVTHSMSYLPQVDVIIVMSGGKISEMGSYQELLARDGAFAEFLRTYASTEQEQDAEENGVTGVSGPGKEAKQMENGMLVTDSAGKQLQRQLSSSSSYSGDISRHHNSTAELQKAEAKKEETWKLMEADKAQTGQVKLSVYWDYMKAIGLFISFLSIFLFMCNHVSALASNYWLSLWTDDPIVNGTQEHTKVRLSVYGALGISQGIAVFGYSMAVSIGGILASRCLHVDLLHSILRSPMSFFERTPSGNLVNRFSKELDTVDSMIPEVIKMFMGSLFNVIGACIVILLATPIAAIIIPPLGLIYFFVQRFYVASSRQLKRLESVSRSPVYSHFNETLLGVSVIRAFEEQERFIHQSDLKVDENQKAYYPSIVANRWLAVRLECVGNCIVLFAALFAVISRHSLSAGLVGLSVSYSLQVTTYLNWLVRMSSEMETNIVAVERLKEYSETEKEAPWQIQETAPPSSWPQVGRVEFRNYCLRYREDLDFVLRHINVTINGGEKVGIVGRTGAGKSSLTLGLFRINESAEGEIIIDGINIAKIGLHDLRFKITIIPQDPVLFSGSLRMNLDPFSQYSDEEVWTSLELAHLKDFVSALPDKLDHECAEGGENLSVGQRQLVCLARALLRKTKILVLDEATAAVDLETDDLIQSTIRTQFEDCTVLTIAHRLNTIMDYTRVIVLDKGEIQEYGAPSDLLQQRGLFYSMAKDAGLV
The test system of a further data set is human skin fibroblasts. Kind of data set: Proliferation of human skin fibroblasts (cell counting). Particulars: for IC50: read-out: Proliferation (IC50). Type of data set: cell-based. The method, then: Human fibroblasts were grown in […] in Dulbecco's modified Eagles medium supplemented with streptomycin/penicillin (100 units of each/ml), kanamycin (100 units/ml) and 10% foetal calf serum. Cell proliferation was determined by cell counting after trypsinisation three days after seeding.

Data set [1] deals with T2, MRP transporters.
T2 construct: other: human erythrocytes
To be noted: human erythrocytes; cited from earlier work.

Another data set addresses chloride channel. Particulars: cited from earlier work.
The next data set concerns the target MDR1 (Homo sapiens, UniProt P08183). Particulars: cited from earlier work.
Data set [2] deals with MRP transporters (Homo sapiens, UniProt P33527). To be noted: read-out: IC50 for MRP transporter; cited from earlier work.
Sequence of MRP transporters (Homo sapiens, UniProt P33527) (P33527 whole entry): as above
Data set [3] deals with human synovial fibroblasts. The experiment in a line: Growth of human synovial fibroblasts. The format is cell-based.
Data set [4] concerns human synovial fibroblasts. Kind of data set: Hyaluronan production of human synovial fibroblasts. Type of data set: cell-based.
The next data set concerns membranes from HT29. The experiment in a line: Hyaluronan transport activity in isolated membranes from HT29. Type of data set: biochemical, human.
Another data set concerns HT29. The experiment in a line: Hyaluronan production of colon carcinoma cell line HT29 (versus HT29-mdr). To be noted: increasing concentrations.
Data set [5] deals with osteoarthritic cartilage in rat knee joints. The experiment in a line: Iodoacetate rat model of osteoarthritis, proteoglycan loss in knee cartilage. The format is in vivo. As for the experimental part:
Osteoarthritic damage was induced in the left knees iodoacetate into the synovial cavity. The right knees remained untreated and served as controls. Three rates were feed with normal drinking water and three with drinking water containing Verapamil. After 17 days the rats were sacrificed and the articular cartilage was analysed histologically. Acid polysaccharides were stained with alcian blue and the preparation was counterstained with nuclear fast red.
The animal trials were performed in accordance with the guidelines of the local ethical committee. Osteoarthritic damage was induced in the left knees of 6 Wistar rats by injection of a solution of 50 μl of 10 mM iodoacetate into the synovial cavity. […] After 17 days the rats were sacrificed and the articular cartilage was analysed histologically. […]
Male Wistar rats (Charles River, Sulzfeld, Germany) having a body weight of 150 g were fed on ordinary laboratory diet and were housed in cages with a floor area of 800 cm^2. […] After 21 days, the rats were sacrificed and the articular cartilage was analysed by histology. […] Digital photos were taken and the blue colour of the proteoglycans was quantitatively evaluated by the free Scion Image Software. To eliminate staining artefacts, the staining of proteoglycans on the joint surface was related to the staining density at the […] and expressed as percent. […]

In another data set the test system is ABCA. To be noted: ABCA1; read-out: IC50, secretion of macrophage inhibitory factor (ABCA1); cited from earlier work.
[6] abbreviates: Fibroblast, human fibroblasts, culture medium.

The values that follow come from patent US20080152640A1, “Means and Methods For Treating a Disease Which is Associated With an Excess Transport of Hyaluronan Across a Lipid Bilayer” (priority 2003, published 2008).

Each structure is given as a SMILES string. Like-named read-outs stand apart in the source and are kept apart here.

Sequence of MDR1 (P08183 whole entry): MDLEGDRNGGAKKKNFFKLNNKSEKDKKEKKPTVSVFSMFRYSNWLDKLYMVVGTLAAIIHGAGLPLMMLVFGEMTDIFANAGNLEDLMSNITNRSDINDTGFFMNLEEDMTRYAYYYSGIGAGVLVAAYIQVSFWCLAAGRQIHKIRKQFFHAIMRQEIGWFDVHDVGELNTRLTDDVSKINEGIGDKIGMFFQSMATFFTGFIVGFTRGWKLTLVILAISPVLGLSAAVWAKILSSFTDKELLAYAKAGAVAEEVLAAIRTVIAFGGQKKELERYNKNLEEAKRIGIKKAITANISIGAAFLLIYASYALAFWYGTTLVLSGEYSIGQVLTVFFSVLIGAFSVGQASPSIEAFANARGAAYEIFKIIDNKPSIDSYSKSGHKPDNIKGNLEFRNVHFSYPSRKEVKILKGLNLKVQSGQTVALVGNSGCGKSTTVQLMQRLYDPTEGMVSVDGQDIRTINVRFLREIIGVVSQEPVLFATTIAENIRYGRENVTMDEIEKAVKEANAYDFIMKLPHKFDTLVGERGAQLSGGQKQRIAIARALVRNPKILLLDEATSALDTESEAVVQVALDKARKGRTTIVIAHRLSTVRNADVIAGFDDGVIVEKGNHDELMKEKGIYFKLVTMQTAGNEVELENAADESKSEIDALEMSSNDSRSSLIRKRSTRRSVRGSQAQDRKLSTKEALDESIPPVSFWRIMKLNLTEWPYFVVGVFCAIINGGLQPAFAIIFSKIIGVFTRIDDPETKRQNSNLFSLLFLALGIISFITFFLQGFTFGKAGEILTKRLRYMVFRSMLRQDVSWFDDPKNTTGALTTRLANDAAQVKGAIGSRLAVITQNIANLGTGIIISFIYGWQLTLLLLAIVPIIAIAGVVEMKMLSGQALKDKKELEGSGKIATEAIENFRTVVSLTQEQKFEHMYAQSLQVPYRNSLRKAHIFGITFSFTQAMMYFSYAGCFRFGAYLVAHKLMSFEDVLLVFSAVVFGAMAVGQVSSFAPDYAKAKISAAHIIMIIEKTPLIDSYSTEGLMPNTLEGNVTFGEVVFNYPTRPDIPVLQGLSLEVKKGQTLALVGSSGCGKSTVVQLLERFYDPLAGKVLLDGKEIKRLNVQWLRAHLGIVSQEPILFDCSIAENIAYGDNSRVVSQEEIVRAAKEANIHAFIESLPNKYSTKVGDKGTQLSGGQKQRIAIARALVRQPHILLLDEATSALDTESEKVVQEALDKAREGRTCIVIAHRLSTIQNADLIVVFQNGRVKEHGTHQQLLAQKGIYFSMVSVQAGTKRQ
Sequence of MRP5 (O15440 whole entry): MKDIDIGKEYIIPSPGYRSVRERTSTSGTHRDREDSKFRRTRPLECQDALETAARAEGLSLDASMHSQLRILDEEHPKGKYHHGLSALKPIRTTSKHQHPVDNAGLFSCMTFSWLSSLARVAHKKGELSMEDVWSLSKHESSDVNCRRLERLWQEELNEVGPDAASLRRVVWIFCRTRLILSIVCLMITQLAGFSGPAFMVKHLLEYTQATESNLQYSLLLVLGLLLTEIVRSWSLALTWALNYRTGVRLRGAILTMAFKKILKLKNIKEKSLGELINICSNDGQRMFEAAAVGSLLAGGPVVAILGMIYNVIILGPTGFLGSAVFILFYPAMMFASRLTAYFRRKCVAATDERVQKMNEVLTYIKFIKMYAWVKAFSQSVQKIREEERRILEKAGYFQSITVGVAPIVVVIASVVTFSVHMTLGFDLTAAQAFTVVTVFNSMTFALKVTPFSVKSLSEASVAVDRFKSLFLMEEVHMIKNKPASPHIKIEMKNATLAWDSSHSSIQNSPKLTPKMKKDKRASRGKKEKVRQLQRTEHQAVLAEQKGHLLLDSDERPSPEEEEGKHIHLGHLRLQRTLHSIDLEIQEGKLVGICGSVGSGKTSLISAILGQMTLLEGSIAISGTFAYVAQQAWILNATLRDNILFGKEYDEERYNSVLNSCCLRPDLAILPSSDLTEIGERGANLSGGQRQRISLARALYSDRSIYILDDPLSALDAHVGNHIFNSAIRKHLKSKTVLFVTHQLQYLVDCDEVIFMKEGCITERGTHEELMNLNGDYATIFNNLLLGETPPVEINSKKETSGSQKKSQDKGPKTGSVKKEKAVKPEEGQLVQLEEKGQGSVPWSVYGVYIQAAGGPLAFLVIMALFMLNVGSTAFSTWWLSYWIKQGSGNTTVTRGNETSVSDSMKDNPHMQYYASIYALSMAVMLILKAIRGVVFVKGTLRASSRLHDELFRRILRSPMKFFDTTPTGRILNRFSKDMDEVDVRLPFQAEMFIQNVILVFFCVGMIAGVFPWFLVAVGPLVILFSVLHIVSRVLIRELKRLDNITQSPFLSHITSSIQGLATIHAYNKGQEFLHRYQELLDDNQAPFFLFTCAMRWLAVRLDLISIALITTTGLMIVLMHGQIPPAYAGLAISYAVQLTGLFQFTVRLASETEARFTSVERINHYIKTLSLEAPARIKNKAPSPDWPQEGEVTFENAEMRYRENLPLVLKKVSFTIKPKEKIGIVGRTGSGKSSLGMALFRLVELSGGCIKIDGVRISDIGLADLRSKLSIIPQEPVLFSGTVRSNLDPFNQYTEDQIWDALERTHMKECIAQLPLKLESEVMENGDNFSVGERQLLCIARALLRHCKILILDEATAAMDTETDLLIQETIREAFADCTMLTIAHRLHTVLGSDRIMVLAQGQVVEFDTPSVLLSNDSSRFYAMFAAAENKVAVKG

With `CCCCCCCCCCSC[C@H](NC(=O)CC[C@H](N)C(=O)O)C(=O)NCC(=O)O` [S-decylglutathione], the “published inhibitory concentrations IC50 or Ki, MRP3” value at MRP3 was “low”. In the data set on hyaluronan transport, the “inhibition of hyaluronan transport (words)” value (shortened to “inhibition … (words)”) is “very good inhibitor”. Further, the “published inhibitory concentrations IC50 or Ki, MRP5” value on MRP5 is recorded as “good”. The “published inhibitory concentrations IC50 or Ki, MRP4” value at MRP4 is “good”. Also, the IC50 with human fibroblasts (setting [6]) was 7 µM; in the data set on hyaluronan synthase, 40 µM. For the same molecule, the “published inhibitory concentrations IC50 or Ki, MRP2” value on MRP2 was “good”.

For the molecule `CN(Cc1cnc2nc(N)nc(N)c2n1)c1ccc(C(=O)N[C@@H](CCC(=O)O)C(=O)O)cc1` [methotrexate], the “published inhibitory concentrations IC50 or Ki, MRP3” value at MRP3 is recorded as “substrate”. In addition, the “inhibition … (words)” value in the data set on hyaluronan transport is “did not inhibit”. The “published inhibitory concentrations IC50 or Ki, MRP1” value at MRP1 is “substrate”. Besides, at MRP5, the “published inhibitory concentrations IC50 or Ki, MRP5” value is given as “no”. The “published inhibitory concentrations IC50 or Ki, MRP4” value at MRP4 was “substrate”. In addition, the IC50 with human fibroblasts (setting [6]) is roughly 200 µM; in the data set with human skin fibroblasts (Homo sapiens, Skin fibroblast) it was roughly 200 µM; in the data set on hyaluronan synthase, greater than 400 µM. For the same molecule, in the data set on hyaluronan synthase, the “hyaluronan transport / synthase activity in membranes” value is “did not inhibit”. For the same molecule, at MRP2, the “published inhibitory concentrations IC50 or Ki, MRP2” value is listed as “substrate”.

The Ki is a measure of affinity in units of concentration, obtained from inhibition or displacement. On to `O=S(=O)(O)c1cc(N=C=S)ccc1C=Cc1ccc(N=C=S)cc1S(=O)(=O)O` [DIDS, 4,4-diisothiocyanatostilbene-2,2-disulfonic acid], for which the “inhibition … (words)” value in the data set on hyaluronan transport is “partially”. Besides, the IC50 at MRP1 is 150 to 300 µM; on MRP4 it was 150 to 300 µM; in the data set on human fibroblasts (human fibroblasts, culture medium), 50 µM; in the data set on human skin fibroblasts (human fibroblasts) it was 250 µM; in the data set with MRP transporters [1], 150 to 300 µM; with hyaluronan synthase, greater than 400 µM. At chloride channel, the inhibition constant (Ki) is 0.84 µM. For the same molecule, in the data set with hyaluronan synthase (membranes from human fibroblast cell line), the “decrease of hyaluronan transport activity” value worked out at 70%.

Turning to `COc1ccc2c(c1)c(CC(=O)O)c(C)n2C(=O)c1ccc(Cl)cc1` [Indomethacin], the “inhibition … (words)” value in the data set on hyaluronan transport is given as “very good inhibition”; in the data set with hyaluronan transport (listed as indomethacin), “inhibited hyaluronan transport”. Also, the IC50 is roughly 50 µM on MRP1 (read-out: IC50, transport of 17β-glucuronosyl-estradiol by MRP1, substrate 17β-glucuronosyl-estradiol); greater than 100 µM on MRP5 (read-out: published inhibitory concentrations IC50 or Ki, MRP5); greater than 100 µM at MRP5 (substrate S-(2,4-dinitrophenyl)glutathione, read-out: IC50, MRP5 mediated transport of S-(2,4-dinitrophenyl)glutathione); 50 µM with human fibroblasts (setting [6]); 200 µM in the data set on human skin fibroblasts (Homo sapiens, Skin fibroblast); greater than 800 µM at MDR1 (read-out: IC50 for MDR1). The IC50 was greater than 800 µM on MDR1 (read-out: published inhibitory concentrations IC50 or Ki, MDR1); 10 to 20 µM at MRP transporters [2]; 10 µM with hyaluronan synthase.

Regarding `COc1ccc(CCN(C)CCCC(C#N)(c2ccc(OC)c(OC)c2)C(C)C)cc1OC` (centres unmarked) [Verapamil], in data set [3], the “growth of human synovial fibroblasts” value is “inhibited growth”. Also, the IC50 with hyaluronan transport (Homo sapiens, Fibroblast, read-out: IC50 for hyaluronan transport (export)) was roughly 50 µM; in the data set on human fibroblasts (Homo sapiens, Fibroblast), 15 µM; with human skin fibroblasts (Homo sapiens, Skin fibroblast), 20 µM; in the data set with hyaluronan synthase, roughly 50 µM. Moreover, in the data set with hyaluronan transport, the “inhibition … (words)” value is on record as “inhibited also hyaluronan synthesis”. Further, the “hyaluronan production of human synovial fibroblasts” value in data set [4] is “inhibited”. In the data set on human fibroblasts, the “hyaluronan in culture medium” value is given as “reduced”. The “hyaluronan transport activity in membranes, sensitive cell line HT29” value in the data set with membranes from HT29 is reported as “inhibition is not complete”. Besides, in the data set on human skin fibroblasts (human skin fibroblasts, increasing concentrations, 3 days), the “cell growth” value is on record as “reduced”. For the same molecule, the “hyaluronan transport in HT29 compared with HT29-mdr” value in the data set on HT29 is “more efficiently blocked hyaluronan transport in HT29 than in HT29-mdr”. In the data set with hyaluronan synthase, the “hyaluronan transport / synthase activity in membranes” value is “blocked the hyaluronan transport in a concentration dependent manner”. The “protection from proteoglycan loss” value in [5] (administered at the day of injury or three days later, analysed after 21 days) is recorded as “completely protected from proteoglycan loss”; in data set [5] (treatment started later than three days, up to 21 days after injury), “partially prevent proteoglycan loss”.

Broadly, the inhibition is the drop in the measured response relative to a control, in per cent. `COc1ccc(Cl)cc1C(=O)NCCc1ccc(S(=O)(=O)NC(=O)NC2CCCCC2)cc1` [Glyburide]: the IC50 at MRP4 (read-out: IC50, MRP4 mediated transport of cGMP, substrate cGMP, human erythrocytes) was 1.9 µM; in the data set with human fibroblasts (setting [6]) it was roughly 400 µM; in the data set with human skin fibroblasts (Homo sapiens, Skin fibroblast), 7 µM; in the data set on hyaluronan synthase it was 120 µM; with ABCA, roughly 5 µM. Also, the inhibition at 400 µM in the data set with human fibroblasts (Homo sapiens, Fibroblast, even at 400 μM, read-out: inhibition of hyaluronan secretion) was no more than 50%. Besides, in the data set with human fibroblasts, the “hyaluronan in culture medium” value is given as “partially inhibited”. Moreover, the “concentration inhibiting MDR1 mediated export of colchicine” value at MDR1 (substrate colchicine) is “about 100 μM”.
